A melting point compilation (Tetko et al.; mined from patent text by program, amines drawn as free bases though some values may be those of a salt)

Row | Structure (SMILES) | melting point [°C]
1 | O=C(Nc1cccc(S(=O)(=O)NCc2ccccn2)c1)c1cnn2c(C(F)F)cc(-c3ccc(C(F)(F)F)cc3)nc12 | 208
2 | CCOC(=O)c1ncn(Cc2c(F)cccc2F)c1C(=O)OCC | 70 to 72
3 | COC(=O)CCn1nc(-c2c(-c3ccccc3)nn3ccccc23)ccc1=O | 133 to 134
4 | CN1C(=O)C2(COc3cc4c(cc32)OCCO4)c2c(-c3cn[nH]c3)cccc21 (stereo not drawn) | 250 to 251
5 | COc1cc(/C=C/CO)ccc1OCc1coc(-c2ccccc2)n1 | 113 to 114
6 | CCOC(=O)Nc1nc2cc(C(O)c3ccccc3)ccc2[nH]1 (stereo not drawn) | > 315
7 | CC(C)C1COCc2nc3c(N)nc4cc(OCC(=O)N5CCOCC5)ccc4c3n21 (stereo not drawn) | 137 to 139
8 | CC(=O)OCCCNC(=O)CCC(NC(=O)C=Cc1ccco1)C(=O)NCCCOC(C)=O (stereo not drawn) | 132 to 134
9 | O=C(O)C[C@H]1CCCC[C@H]1n1nc(-c2c(-c3ccccc3)nn3ccccc23)ccc1=O (relative stereo) | 238 to 240
10 | Cc1ncc(COP(=O)(O)O)c(CN(CCN(CC(=O)O)Cc2c(COP(=O)(O)O)cnc(C)c2O)CC(=O)O)c1O | 174 to 180
11 | COc1cc(N)c(Cl)cc1C(=O)NC1C=NN(C)C1 (stereo not drawn) | 173 to 175
12 | O=C1CSc2ccc(CO)nc2N1 | 120 to 135
13 | CCOC(=O)c1c(C(F)(F)F)nn(C)c1N | 120 to 121
14 | N#CCCN(CCC#N)CCC#N | 59 to 61
15 | COc1ccc2nc3cc(N4CCN(C)CC4)c(=O)cc-3sc2c1 | 208 to 209
16 | Cc1noc([C@@H](Cc2ccccc2)NC(=O)[C@@H](Cc2ccc3ccccc3c2)NC(=O)c2cccc(CNC(=O)OC(C)(C)C)c2)n1 | 176 to 178
17 | NC(=O)c1ccc(CCN2CCC(=C3c4ccsc4CCn4ccnc43)CC2)cc1 | 196
18 | O=C(O)C=CC(=O)OC1CCN(C(=O)Cn2c(=O)sc3ccc(Cl)cc32)CC1 | 197 to 198
19 | C=CC(=O)Oc1ccc(N2C(=O)C(=C(C)C)/C(=C(\c3cc(C)oc3C)C(C)C)C2=O)cc1 | 50 to 52
20 | CCCCCCCCCCC=Cc1cnn(C(C(=O)Nc2c(C(C)C)cccc2C(C)C)c2ccccc2)c1 (stereo not drawn) | 158

Row | Structure (SMILES) | melting point [°C]
21 | CCCOc1ccccc1-c1ncc(C(=O)O)c(=O)[nH]1 | 203 to 206
22 | Cc1cccc(NC(=O)NC2CN(C(=O)C(C)(C)C)c3ccc(C)cc3N(CC(=O)c3ccccc3C)C2=O)c1 (stereo not drawn) | 218 to 220
23 | O=C(Cl)N(OCc1ccccc1)C1c2ccccc2Oc2ccccc21 | 117
24 | C=Cc1ccc2c3ccc(C=C)cc3n(CC(CC)CCCC)c2c1 (stereo not drawn) | 59 to 60
25 | O=C(NC1CCC(O)CC1)C1CC1 (stereo not drawn) | 220 to 222
26 | CCCCC(NS(=O)(=O)c1ccc(Cl)cc1)C(=S)Nc1ccc(CCC(=O)OC)cc1 (racemic) | 87 to 89
27 | CCOC(=O)C1=C(C)OC(=O)C1=C(C)O | 106 to 108
28 | CC(O)=C(C(=O)OCc1ccc([N+](=O)[O-])cc1)N1C(=O)C(NC(=O)COc2ccccc2)C1SS(=O)(=O)c1ccc(C)cc1 (stereo not drawn) | 159 to 160
29 | CON=CNC(=O)c1ccc(Br)cc1C | 119 to 122
30 | CCOC(=O)C1=C(CSCCNC=O)NC(C)=C(C(C)=O)C1c1cccc([N+](=O)[O-])c1 (stereo not drawn) | 140 to 142
31 | CC(C)N1CCN(S(=O)(=O)c2ccc(NC(=O)Nc3ccc(C(F)(F)F)cc3)cc2)CC1 | 208 to 212
32 | CCc1nc(OCc2ccc(Oc3ccc(C(F)(F)F)cc3)cc2)c(C)c(=O)n1CC | 93.8 to 95.7
33 | Cc1cc(Cc2cc(C)c(N)c(C)c2)cc(C)c1N | 119 to 120
34 | COC(=O)CCCc1cc2nc(Cl)ccc2n1S(=O)(=O)c1ccc(Br)cc1 | 102
35 | COC(=O)c1ccnc(Nc2ccc(SC)cc2)c1 | 142
36 | N#Cc1ccc(Nc2nc(Oc3c(Br)cc(CO)cc3Br)ccc2[N+](=O)[O-])cc1 | 209 to 213
37 | Cc1cc(C(F)(C(F)(F)F)C(F)(F)F)ccc1N1C(=O)c2cccc(Cl)c2C1NC(C)(C)CS(C)(=O)=O (stereo not drawn) | 154 to 156
38 | Cc1cc(C2(C(F)(F)C(F)(F)C(F)(F)F)CC(c3ccc(Cl)cc3)=NO2)ccc1NC(=O)c1cccc(I)c1C(=O)NC(C)C (stereo not drawn) | 156 to 158
39 | CCCc1c(OCCCOc2ccc(C#N)cc2Br)ccc(C(C)=O)c1O | 88 to 89
40 | CCCC(=O)c1cc2c(c(Cl)c1Cl)OC(C(=O)O)C2 (stereo not drawn) | 124 to 125

Row | Structure (SMILES) | melting point [°C]
41 | CS(=O)(=O)c1ccc(Oc2cc(OCC3CCOCC3)c3[nH]c(C4=NCC(CCO)S4)cc3c2)cc1 (stereo not drawn) | 104 to 105
42 | COC(=O)C1=C(C)CN(c2ccccc2)C1=O | 143 to 145
43 | N=C(N)Nc1nc(-c2ccccc2[N+](=O)[O-])c2cc(Cl)ccc2n1 | 150
44 | CCCCOCCOc1ccc(-c2ccc3c(c2)C=C(C(=O)Nc2ccc(S(=O)Cc4nncn4CCC)nc2)CCN3CC(C)C)cc1 (stereo not drawn) | 135 to 138
45 | CN1CCC(c2c[nH]c3ccc(/C=C/C(N)=O)cc23)CC1 | 82 to 83.5
46 | CCOC(=O)C1=C(C)NC(C=NOC)=C(C(=O)OCC)C1c1ccccc1Cl (stereo not drawn) | 110 to 112
47 | COc1ccc(-n2nnnc2C)cc1C=O | 132 to 134
48 | O=C(O)c1ccc(-c2nc(-c3ccc(Cl)cc3)no2)c([N+](=O)[O-])c1 | 257 to 258
49 | [N-]=[N+]=NCC1CN(c2ccc(SC(c3ccccc3)(c3ccccc3)c3ccccc3)c(F)c2)C(=O)O1 (stereo not drawn) | 77 to 79
50 | O=C(Cn1ccnc1)c1ccc(F)cc1F | 125
51 | CCN(CC)C(=O)c1c(C)cccc1Cl | 48 to 49
52 | Oc1cccc(C2CN=C(c3ccccn3)O2)c1 (stereo not drawn) | 139 to 141
53 | COC(=O)C1=C(C#N)NC(C)=C(C(=O)OCC(C)C)C1c1ccccc1C#N (stereo not drawn) | 196 to 198
54 | O=C(O)c1ccc(C#Cc2ccc(OCCCO)c(C34CC5CC(CC(C5)C3)C4)c2)cc1 | 290 to 292
55 | COCc1[nH]c(=O)c(C#N)c2c1CC(C)CC2 (stereo not drawn) | 205 to 208
56 | Cc1nc(Nc2nc3ccccc3[nH]2)nc(O)c1CC(=O)O | > 300
57 | Cc1cc2ncc(C(=O)O)nc2cc1C | 214 to 216
58 | CC(C)(C1CCCCC1)C(NC(=O)c1ccc(Cl)cc1)NC(=N[N+](=O)[O-])Nc1cccnc1 (stereo not drawn) | 201 to 203
59 | CCOC(=O)N[C@@H]1CCc2c(ccc(OCc3ccccc3)c2C(=O)OC)[C@H]1O (relative stereo) | 147 to 148

Next, values leading:

Row | melting point [°C] | Structure (SMILES)
60 | 80 to 83 | CC(C)(C)NC(=O)C(NC(C)(C)C)=C1CCCC1
61 | 114 | O=C(NCCCl)c1c(Cl)cccc1Cl
62 | 88 to 90 | CCCc1nn(C)c2c(=O)n(CCNc3ccc(OC(C)(C)C(=O)O)cc3)c(C)nc12
63 | 104 to 105 | Cc1onc(-c2ccc(Cl)o2)c1-c1ccc(F)cc1
64 | 134 to 135 | N#Cc1cc(F)c(NC(=O)C(F)(F)F)c(F)c1
65 | 144 to 145 | Cc1cccc(-c2ccccc2)c1NC(=N)N(C)C
66 | 173 | COc1ccc(C2(c3ccc(OC)cc3)CC(C)N=C2NC(=O)c2cc(C)[nH]n2)cc1 (stereo not drawn)
67 | 194 to 196 | Cc1nc2cc3c(nc2o1)C(=O)OC3=O
68 | 193 to 196 | NC(=O)c1ccc(Cc2ccccc2)cn1
69 | 146 to 148 | NC(=O)c1c(F)ccc(OCc2ccc3sccc3c2)c1F
70 | 264 to 267 | CN(C)C(=O)c1cc(-c2ccccc2)c(=O)[nH]c1-c1c(Cl)cccc1C#N
71 | 113 to 114 | CCOC(=O)Cc1cccc(-c2nc(COc3ccc(C=O)cc3OC)c(C)o2)c1
72 | 150 to 152 | OCCN1CCN(C2Cc3ccccc3Sc3cc(F)c(Cl)cc32)CC1 (stereo not drawn)
73 | 284 to 289 | N#Cc1ccc(-c2cc3ccccc3[nH]c2=S)cc1
74 | 98 to 100 | CN(CCN1CCC(=C(c2ccccc2)c2ccccc2)CC1)c1ncccn1
75 | 248 to 250 | CC1CCC(=NN)c2ncc(C(N)=O)c(=O)n21 (stereo not drawn)
76 | 130 to 132 | Cc1c(C(=O)C2CSC(c3cccnc3)N2)c2ccccc2n1C(=O)N(C)C (stereo not drawn)
77 | 144 to 146 | COc1ccc(CC(NC(C)=O)C(=O)O)cc1 (racemic)
78 | 184 to 185 | O=C1Nc2ccc(Cl)cc2C12OCCCO2
79 | > 300 | Cn1c2ccncc2c(=O)n2nccc12

Row | melting point [°C] | Structure (SMILES)
80 | 95 to 96 | CCOC(=O)/C=C/c1nc(COc2ccc(COc3nn(-c4ccccc4)cc3/C=C\c3csc(CC)n3)cc2OC)c(C)o1
81 | > 265 | CCOC(=O)c1cnc2ccc(C#N)cc2c1O
82 | 95 to 97 | CC(Cn1ccc(C(F)(F)F)n1)n1nnc2cc3c(=O)n(C(C)Cn4ncnn4)nnc3cc2c1=O (stereo not drawn)
83 | 224 to 228 | CCC(=O)N1CCC(NC(=O)Nc2ccc(C(F)(F)F)cc2)CC1
84 | 175 to 176 | CCC1(C(=O)O)c2ccccc2Oc2ccccc21
85 | 187 to 190 | O=C(O)CCCc1ccc(-c2ccc(Cl)cc2)cc1
86 | 202 to 203 | O=C1N=c2ccc(OCCN3CC=C(Cc4ccccc4)CC3)cc2=N1
87 | 113 | Cc1sc2ncc(C(=O)CC(O)c3ccccc3)n2c1C (stereo not drawn)
88 | 138 to 140 | Cc1cc(N)n(C(CCc2ccccc2)=NO)n1
89 | 87.5 to 89 | CC(C)NOP(=O)(O)C(C(C)C)N(CC(=O)OCCCl)C(=O)C(F)(F)F (stereo not drawn)
90 | 130 to 134 | CC(C)c1cc(S(=O)(=O)C(C)C)c(C(C)C)cc1C#N
91 | 143 | CCOC(=O)N(Cc1ccccc1)Cn1cc(Cl)cnc1=O
92 | 51 to 53 | N#CSCSc1sccc1[N+](=O)[O-]
93 | 76 to 77 | Cc1cc(C)cc(-c2nc(CCl)co2)c1
94 | 142 to 144 | O=[N+]([O-])c1ccc2c(c1)CS(=O)(=O)N2CCF
95 | 116 to 117 | COCN1C(C)=C(C(=O)OCc2ccccc2)C(c2cccc(Cl)c2Cl)C(C(=O)OCc2ccccc2)=C1C
96 | 227 | O=C(Nc1ccccc1S(=O)(=O)c1ccccc1)N[C@@H](Cc1ccc(NC(=O)c2c(Cl)cccc2Cl)cc1)C(=O)O
97 | 156 to 158 | CCCCCCNC(=O)[C@H](C)C[C@H](O)[C@H](CC1CCCCC1)NC(=O)[C@H](Cc1cscn1)NC(=O)OC(C)(C)C
98 | 338 to 339 | COc1ccccc1-n1c(=O)[nH]c2c(C(N)=O)nc(-c3cccc(C(N)=O)c3)nc21
